# Test system: HBV
# Experiment: HBV inhibition assay in HepAD38 cells (extracellular HBV DNA by direct qPCR)
# Type: cell-based
# Details: Hepatitis B virus, 8-point dose-response curve, 96 hours, read-out: HBV inh EC50
# Summary of the method: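 HepAD38 cells (HepG2, tetracycline-off HBV) induced in tetracycline-free medium, treated 96 h at 37 °C with compound, 0.5% DMSO. Extracellular HBV DNA quantified by direct SYBR qPCR of lysed supernatant, as % of untreated; EC50 from 8-point 1:2 curves; cytotoxicity by CellTiter-Blue.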
row,SMILES,EC50
1,"O=C(Nc1cc(F)c(F)c(F)c1)c1ccc2c(c1)S(=O)(=O)NCCN2 [Example E94, N-(3,4,5-trifluorophenyl)-2,3,4,5-tetrahydrobenzo[f][1,2,5]thiadiazepine-8-carboxamide 1,1-dioxide]",> 1000 nM

# Same assay, conditions: Hepatitis B virus, compound at 0.5 µM, 96 hours, relative to non-treated reference, read-out: Anti HBV Activity (conc µM)
row,SMILES,inhibition at 0.5 µM
1,"O=C(Nc1ccc(Cl)nc1)c1ccc2c(c1)S(=O)(=O)NCN2 [Example E92, N-(6-chloropyridin-3-yl)-3,4-dihydro-2H-benzo[e][1,2,4]thiadiazine-7-carboxamide 1,1-dioxide]",< 50%
2,"O=C(Nc1cc(F)c(F)c(F)c1)c1cnc2c(c1)S(=O)(=O)NCN2 [Example E93, N-(3,4,5-trifluorophenyl)-3,4-dihydro-2H-pyrido[2,3-e][1,2,4]thiadiazine-7-carboxamide 1,1-dioxide]",< 50%
3,"O=C(Nc1cc(F)c(F)c(F)c1)c1ccc2c(c1)S(=O)(=O)N[C@H]1CCC[C@@H]1N2 [Example E95, (3aS, 10aS)-N-(3,4,5-trifluorophenyl)-2,3,3a,4,10,10a-hexahydro-1H-benzo[f]cyclopenta[c][1,2,5]thiadiazepine-7-carboxamide 5,5-dioxide]",< 50%

# Same assay, conditions: Hepatitis B virus, compound at 1 µM, 96 hours, relative to non-treated reference, read-out: Anti HBV Activity (conc µM)
row,SMILES,inhibition at 1 µM
1,"Cc1cc(C(=O)Nc2cc(F)c(F)c(F)c2)cc2c1NC(c1nccs1)NS2(=O)=O (stereo not shown) [Example E89, 5-methyl-3-(thiazol-2-yl)-N-(3,4,5-trifluorophenyl)-3,4-dihydro-2H-benzo[e][1,2,4]thiadiazine-7-carboxamide 1,1-dioxide]",> 50%
2,"N#Cc1cc(NC(=O)c2ccc3c(c2)S(=O)(=O)NC=N3)ccc1F [Example E90, N-(3-cyano-4-fluorophenyl)-2H-benzo[e][1,2,4]thiadiazine-7-carboxamide 1,1-dioxide]",< 50%
3,"N#Cc1cc(NC(=O)c2ccc3c(c2)S(=O)(=O)NCN3)ccc1F [Example E91, N-(3-cyano-4-fluorophenyl)-3,4-dihydro-2H-benzo[e][1,2,4]thiadiazine-7-carboxamide 1,1-dioxide]",< 50%
4,"O=C(Nc1cc(F)c(F)c(F)c1)c1ccc2c(c1)S(=O)(=O)N1CCCCC1CN2 (stereo not shown) [Example E101, N-(3,4,5-trifluorophenyl)-1,3,4,11,12,12a-hexahydro-2H-benzo[f]pyrido[1,2-b][1,2,5]thiadiazepine-8-carboxamide 6,6-dioxide]",> 50%
5,"CN1CC2CCCCN2S(=O)(=O)c2cc(C(=O)Nc3cc(F)c(F)c(F)c3)ccc21 (stereo not shown) [Example E102, 11-methyl-N-(3,4,5-trifluorophenyl)-1,3,4,11,12,12a-hexahydro-2H-benzo[f]pyrido[1,2-b][1,2,5]thiadiazepine-8-carboxamide 6,6-dioxide]",< 50%
6,"O=C(Nc1cc(F)c(F)c(F)c1)c1ccc2c(c1)S(=O)(=O)N1CCCC[C@H]1CN2 [Example E103, (S)-N-(3,4,5-trifluorophenyl)-1,3,4,11,12,12a-hexahydro-2H-benzo[f]pyrido[1,2-b][1,2,5]thiadiazepine-8-carboxamide 6,6-dioxide]",< 50%
7,"O=C(Nc1cc(F)c(F)c(F)c1)c1ccc2c(c1)S(=O)(=O)N1CCCC[C@@H]1CN2 [Example E104, (R)-N-(3,4,5-trifluorophenyl)-1,3,4,11,12,12a-hexahydro-2H-benzo[f]pyrido[1,2-b][1,2,5]thiadiazepine-8-carboxamide 6,6-dioxide]",> 50%
8,"O=C(Nc1cc(F)c(F)c(F)c1)c1ccc2c(c1)S(=O)(=O)N1CC[C@@H](C1)N2 [Example E105, (5S)-N-(3,4,5-trifluorophenyl)-3,4,5,6-tetrahydro-2,5-methanobenzo[g][1,2,6]thiadiazocine-9-carboxamide 1,1-dioxide]",< 50%
9,"O=C(Nc1cc(F)c(F)c(F)c1)c1ccc2c(c1)S(=O)(=O)N1CCCC1CN2 (stereo not shown) [Example E106, N-(3,4,5-trifluorophenyl)-1,2,3,10,11,11a-hexahydrobenzo[f]pyrrolo[1,2-b][1,2,5]thiadiazepine-7-carboxamide 5,5-dioxide]",< 50%

# Source: patent EP3597653A1, “CYCLIC INHIBITORS OF HEPATITIS B VIRUS” (IRBM S.P.A., priority 2018, dated 2020)
